Consider 39 molecules from US7119073B2, “Peptides and their use as inhibitors of hepatitis C virus ns3 protease” (Istituto Di Ricerche Di Biologia Molecolare P. Angeletti SpA, priority 2001, dated 2006).

The target in one assay is T1, NS3 protease domain complexed to a modified form of the NS4A peptide (Pep4AK) (Hepatitis C virus genotype 1b, UniProt P26663).
T1 construct: NS3 protease domain (residues 1027–1206 of the HCV polyprotein)
T1 sequence (P26663 1027-1206, other chains not shown): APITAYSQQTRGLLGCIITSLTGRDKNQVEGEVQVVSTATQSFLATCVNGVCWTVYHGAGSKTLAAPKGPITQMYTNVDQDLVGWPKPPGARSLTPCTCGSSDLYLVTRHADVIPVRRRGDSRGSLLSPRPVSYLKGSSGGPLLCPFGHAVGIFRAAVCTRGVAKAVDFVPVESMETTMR
The assay is described as follows: HCV NS3 protease domain/NS4A cofactor peptide assay (Assay B). It is filed as biochemical. The settings on record: Table 2; NS3 protease domain/Pep4AK; read-out: Assay B.
For `CC(C)C[C@H](NC(=O)[C@H](CCC(=O)O)NC(=O)C(=O)c1cccs1)C(=O)N[C@@H](CS)C(=O)NCCc1ccccc1Cl` [Compound 224], the IC50 was < 100 µM.
Take `CC(C)C[C@H](NC(=O)[C@H](CCC(=O)O)NC(=O)Cc1ccccc1CC(=O)O)C(=O)N[C@@H](CS)C(=O)NCCc1ccc(Cl)cc1Cl` [Compound 225]: the IC50 is < 10 µM.
`CC(C)C[C@H](NC(=O)[C@H](CCC(=O)O)NC(=O)Cc1cccc(CC(=O)O)c1)C(=O)N[C@@H](CS)C(=O)NCCc1ccc(Cl)cc1Cl` [Compound 226]: the IC50 is < 100 µM.
For `CC(C)C[C@H](NC(=O)[C@H](CCC(=O)O)NC(=O)Cc1ccc(CC(=O)O)cc1)C(=O)N[C@@H](CS)C(=O)NCCc1ccc(Cl)cc1Cl` [Compound 227], the IC50 was < 100 µM.
For `C=CCCC(=O)N[C@@H](CCC(=O)O)C(=O)N[C@@H](CC(C)C)C(=O)N[C@@H](CS)C(=O)NCCc1ccccc1Cl` [Compound 228], the IC50 is < 100 µM.
As to `CC(C)CC(O)C(=O)N[C@@H](CCC(=O)O)C(=O)N[C@@H](CC(C)C)C(=O)N[C@@H](CS)C(=O)NCCc1ccccc1Cl` (stereo partly drawn) [Compound 229], the IC50 was < 100 µM.
The same measure, in the same setting: the figure for `CC(C)C[C@H](NC(=O)[C@H](CCC(=O)O)NC(=O)C1CCCCC1)C(=O)N[C@@H](CS)C(=O)NCCc1ccccc1Cl` [Compound 230] is < 100 µM; for `COc1ccc(CCNC(=O)[C@H](CS)NC(=O)[C@H](CC(C)C)NC(=O)[C@H](CCC(=O)O)NC(=O)C2CCCCC2)cc1` [Compound 231] it is < 100 µM.
As to `COc1ccc(CCNC(=O)[C@H](CS)NC(=O)[C@H](CC(C)C)NC(=O)[C@H](CCC(=O)O)NC(=O)C2CCCCCC2)cc1` [Compound 232], the IC50 is < 100 µM.
As for `CC(C)C[C@H](NC(=O)[C@H](CCC(=O)O)NC(=O)CC1CCCCC1)C(=O)N[C@@H](CS)C(=O)NCCc1ccccc1Cl` [Compound 234], the IC50 is < 100 µM.
Consider `CC(C)C[C@H](NC(=O)[C@H](CCC(=O)O)NC(=O)CCC1CCCC1)C(=O)N[C@@H](CS)C(=O)NCCc1ccccc1Cl` [Compound 235], for which the IC50 is < 100 µM.
Same read-out and setting: the value for `COc1ccc(CCNC(=O)[C@H](CS)NC(=O)[C@H](CC(C)C)NC(=O)[C@H](CCC(=O)O)NC(=O)CCC2CCCC2)cc1` [Compound 236] was < 100 µM; that for `CC(C)C[C@H](NC(=O)[C@H](CCC(=O)O)NC(=O)N1CCOCC1)C(=O)N[C@@H](CS)C(=O)NCCc1ccccc1Cl` [Compound 237] was < 100 µM; that for `CC(C)C[C@H](NC(=O)[C@H](CCC(=O)O)NC(=O)CC1NC(=O)NC1=O)C(=O)N[C@@H](CS)C(=O)NCCc1ccc(Cl)cc1Cl` (stereo partly drawn) [Compound 238] was < 100 µM.
For the molecule `CC(C)C[C@H](NC(=O)[C@H](CCC(=O)O)NC(=O)CCC(=O)O)C(=O)N[C@@H](CS)C(=O)NCCc1ccccc1Cl` [Compound 239], the IC50 is < 100 µM.
With `CC(C)C[C@H](NC(=O)[C@H](CCC(=O)O)NC(=O)CC(C)(C)CC(=O)O)C(=O)N[C@@H](CS)C(=O)NCCc1ccccc1Cl` [Compound 240], the IC50 is < 100 µM.
On to `COc1ccc(CCNC(=O)[C@H](CS)NC(=O)[C@H](CC(C)C)NC(=O)[C@H](CCC(=O)O)NC(=O)CC(C)(C)CC(=O)O)cc1` [Compound 241], for which the IC50 was < 100 µM.
For the molecule `COc1ccc(CCNC(=O)[C@H](CS)NC(=O)[C@H](CC(C)C)NC(=O)[C@H](CCC(=O)O)NC(=O)C(C)(C)CCC(=O)O)cc1` [Compound 243], the IC50 was < 100 µM.
On the same count and under the same terms, the figure for `CC(C)C[C@H](NC(=O)[C@H](CCC(=O)O)NC(=O)CCCC(=O)O)C(=O)N[C@@H](CS)C(=O)NCCc1ccccc1Cl` [Compound 244] is < 100 µM; for `CC(C)C[C@H](NC(=O)[C@H](CCC(=O)O)NC(=O)CC(C)CC(=O)O)C(=O)N[C@@H](CS)C(=O)NCCc1ccccc1Cl` (stereo partly drawn) [Compound 245] it is < 100 µM.
On the same count and under the same terms, the figure for `C=CCNC(=O)N[C@@H](CCC(=O)O)C(=O)N[C@@H](CC(C)C)C(=O)N[C@@H](CS)C(=O)NCCc1ccccc1Cl` [Compound 246] is < 100 µM; for `CC(C)C[C@H](NC(=O)[C@H](CCC(=O)O)NC(=O)Nc1ccccc1)C(=O)N[C@@H](CS)C(=O)NCCc1ccccc1Cl` [Compound 247] it is < 100 µM; for `CC(C)C[C@H](NC(=O)[C@H](CCC(=O)O)NC(=O)NCc1ccccc1)C(=O)N[C@@H](CS)C(=O)NCCc1ccc(Cl)cc1Cl` [Compound 248] it is < 100 µM.
On the same count and under the same terms, the value for `CC(C)C[C@H](NC(=O)[C@H](CCC(=O)O)NS(=O)(=O)c1ccccc1)C(=O)N[C@@H](CS)C(=O)NCCc1ccccc1Cl` [Compound 249] was < 100 µM; that for `COc1ccc(CCNC(=O)[C@H](CS)NC(=O)[C@H](CC(C)C)NC(=O)[C@H](CCC(=O)O)NS(=O)(=O)c2ccccc2)cc1` [Compound 250] was < 100 µM.
Consider `Cc1ccc(S(=O)(=O)N[C@@H](CCC(=O)O)C(=O)N[C@@H](CC(C)C)C(=O)N[C@@H](CS)C(=O)NCCc2ccccc2Cl)cc1` [Compound 251], for which the IC50 is < 100 µM.
For the molecule `CC(C)C[C@H](NC(=O)[C@H](CCC(=O)O)NS(=O)(=O)c1cccs1)C(=O)N[C@@H](CS)C(=O)NCCc1ccccc1Cl` [Compound 253], the IC50 was < 100 µM.
With `COc1ccc(CCNC(=O)[C@H](CS)NC(=O)[C@H](CC(C)C)NC(=O)[C@H](CCC(=O)O)NS(C)(=O)=O)cc1` [Compound 254], the IC50 is < 100 µM.
Regarding `COc1ccc(CCNC(=O)[C@H](CS)NC(=O)[C@H](CC(C)C)NC(=O)[C@H](CCC(=O)O)NS(=O)(=O)c2ccc3ccccc3c2)cc1` [Compound 255], the IC50 is < 100 µM.
As to `CC(C)C[C@H](NC(=O)[C@H](CCC(=O)O)NS(=O)(=O)Cc1ccccc1)C(=O)N[C@@H](CS)C(=O)NCCc1ccc(Cl)cc1Cl` [Compound 256], the IC50 is < 100 µM.

Still in this assay, the particulars now being: Table 4; NS3 protease domain/Pep4AK; read-out: Assay B.
As for `CC[C@H](NC(=O)[C@H](CCC(=O)O)NC(=O)OCC(C)C)C(=O)N[C@@H](CS)C(=O)NCCc1ccccc1Cl` [Compound 401], the IC50 is < 100 µM.
Turning to `CC(C)COC(=O)N[C@@H](CCC(=O)O)C(=O)N[C@@H](CC(F)F)C(=O)N[C@@H](CS)C(=O)NCCc1ccc(C(=O)O)cc1` [Compound 402], the IC50 was < 100 µM.
Regarding `CCC[C@H](NC(=O)[C@H](CCC(=O)O)NC(=O)OCC(C)C)C(=O)N[C@@H](CS)C(=O)NCCc1ccccc1Cl` [Compound 405], the IC50 was < 100 µM.
Same read-out and setting: the figure for `CCCC[C@H](NC(=O)[C@H](CCC(=O)O)NC(=O)OCC(C)C)C(=O)N[C@@H](CS)C(=O)NCCc1ccccc1Cl` [Compound 407] is < 100 µM; for `CC(C)COC(=O)N[C@@H](CCC(=O)O)C(=O)N[C@@H](CC1CC1)C(=O)N[C@@H](CS)C(=O)NCCc1ccccc1Cl` [Compound 408] it is < 100 µM; for `CC(C)COC(=O)N[C@@H](CCC(=O)O)C(=O)N[C@@H](CC1CCCCC1)C(=O)N[C@@H](CS)C(=O)NCCc1ccc(C(=O)O)cc1` [Compound 409] it is < 10 µM.
As to `CC(C)COC(=O)N[C@@H](CCC(=O)O)C(=O)N[C@H](C(=O)N[C@@H](CS)C(=O)NCCc1ccccc1Cl)C1CCCC1` [Compound 411], the IC50 was < 100 µM.
Consider `CC(C)COC(=O)N[C@@H](CCC(=O)O)C(=O)N[C@@H](CCC(=O)O)C(=O)N[C@@H](CS)C(=O)NCCc1ccccc1Cl` [Compound 412], for which the IC50 was < 100 µM.
On to `CC(C)COC(=O)N[C@@H](CCC(=O)O)C(=O)N[C@@H](CCC(=O)OCc1ccccc1)C(=O)N[C@@H](CS)C(=O)NCCc1ccccc1Cl` [Compound 413], for which the IC50 is < 100 µM.
